{"source": "patent US8188059B2", "about": "“Compounds and methods for modulating expression of GCGR” (Isis Pharmaceuticals, Inc., priority 2006, dated 2012)", "key": {"[1]": {"assay": "Transaminase levels, liver and spleen weights, body weight (Example 6, Table 47)", "assay_type": "in vivo, mouse", "conditions": "8 μmol/kg single i.p.; 72 h; Balb/c mice", "description": "(§1) Each dose group consisted of four animals. Shown in Table 46 are the sequences and motifs of the PTEN antisense compounds used in this study. Bolded residues indicate 2′-O-methoxyethyl moieties (2′-MOE) and italicized residues indicate Methyleneoxy BNA nucleotides. Each antisense compound comprises phosphorothioate linkages throughout. In addition, the cytosine residues in the gap of ISIS 384073 and in the wings of ISIS 392056, ISIS 392057, ISIS 392061 and ISIS 392063 are replaced with 5-methylcytosines. Antisense compounds target published PTEN nucleic acids, including Genbank Accession No. U92437.1 (SEQ ID NO: 13).\n(§2) Mice were sacrificed 72 hours following injection to determine serum transaminase levels (Table 47); liver and spleen weights (Table 47); and PTEN mRNA levels in liver, kidney and fat (Table 48), according to procedures described herein and well know to one of ordinary skill in the art."}, "PTEN mRNA": {"system": "PTEN mRNA", "assay": "PTEN mRNA levels in liver, kidney and fat, Balb/c mice, single 8 μmol/kg i.p. (Example 6, Table 48)", "assay_type": "in vivo, mouse", "conditions": "8 μmol/kg single i.p., 72 h, saline = 100", "description": "as §1, §2"}}, "note": "Strand notation (5' to 3'): a small letter for the sugar, then the base; units joined by * are phosphorothioate-linked, units joined directly phosphodiester-linked; [ ] holds rarer units or linkages, { } end groups; capitals alone tell only the bases. l = locked nucleic acid (LNA); [5mC] = 5-methylcytosine; d = 2'-deoxy (DNA)", "data": [{"substance": "384073 (antisense lG*lC*lT*dA*dG*d[5mC]*d[5mC]*dT*d[5mC]*dT*dG*dG*dA*lT*lT*lT) [compound 384073]", "values": [{"measurement": "ALT", "setting": "[1]", "result": 29.3, "unit": "IU/L"}, {"measurement": "AST", "setting": "[1]", "result": 57.8, "unit": "IU/L"}, {"measurement": "Liver Weight", "setting": "[1]", "result": 115, "unit": "% Saline"}, {"measurement": "Spleen Weight", "setting": "[1]", "result": 111, "unit": "% Saline"}, {"measurement": "% PTEN mRNA levels in Fat", "setting": "PTEN mRNA", "result": 77, "unit": "%"}, {"measurement": "% PTEN mRNA levels in Kidney", "setting": "PTEN mRNA", "result": 74, "unit": "%"}, {"measurement": "% PTEN mRNA levels in Liver", "setting": "PTEN mRNA", "result": 24, "unit": "%"}]}]}
